Test results published in ChEMBL document CHEMBL5375954, “Discovery and Evaluation of C6-Substituted Pyrazolopyrimidine-Based Bisphosphonate Inhibitors of the Human Geranylgeranyl Pyrophosphate Synthase and Evaluation of Their Antitumor Efficacy in Multiple Myeloma, Pancreatic Ductal Adenocarcinoma, and Colorectal Cancer” (J Med Chem, 2023).
Calls of active or inactive are those of the source. The calls are words filed in the database; no cut-off is given here.

Tests used:
[1] = Toxicity in NSG mouse xenografted with human MIA PaCa-2 cells assessed as appearance of skin lesions at 3 mg/kg, ip administered 3 times a week for 26 days and measured daily; type: organism-based; conditions: in vivo, time 26 day
Cytochrome P450 3A4 = Cytochrome P450 3A4 (Homo sapiens, UniProt P08684); test: Inhibition of CYP3A4 (unknown origin); type: ADME
Chain of Cytochrome P450 3A4 (P08684 whole entry): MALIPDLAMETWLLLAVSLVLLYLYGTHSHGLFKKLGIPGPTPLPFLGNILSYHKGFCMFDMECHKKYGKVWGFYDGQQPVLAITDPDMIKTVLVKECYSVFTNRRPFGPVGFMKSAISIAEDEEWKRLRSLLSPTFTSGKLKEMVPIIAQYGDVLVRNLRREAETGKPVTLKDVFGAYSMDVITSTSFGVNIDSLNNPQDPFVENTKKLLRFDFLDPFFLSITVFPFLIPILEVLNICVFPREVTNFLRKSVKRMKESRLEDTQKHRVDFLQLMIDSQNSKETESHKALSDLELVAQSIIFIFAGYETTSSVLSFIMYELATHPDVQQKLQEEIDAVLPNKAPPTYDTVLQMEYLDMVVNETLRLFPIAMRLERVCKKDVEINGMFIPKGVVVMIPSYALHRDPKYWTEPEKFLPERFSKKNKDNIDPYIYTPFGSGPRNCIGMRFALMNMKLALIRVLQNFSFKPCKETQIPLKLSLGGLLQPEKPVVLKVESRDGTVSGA

[2] = Half life in Sprague-Dawley rat at 3 mg/kg, iv measured for 24 hrs by LC-MS/MS analysis; type: ADME, organism-based; conditions: in vivo
[3] = Hepatotoxicity in female NSG mouse xenografted with human RPMI-8226 cells assessed as serum AST level at 3 mg/kg, ip administered 3 times a week for 26 days and measured 48 hrs post last dose (reference value: 84 to 229 IU/L); type: toxicity, organism-based; conditions: in vivo, 672 h, time 28 day
MIA PaCa-2 [4] = test: Induction of apoptosis in human MIA PaCa-2 cells at 1 uM incubated for 72 hrs by APC-Annexin-V/7-AAD staining based flow cytometry relative to control; type: functional
JJN-3 = test: Antiproliferative activity against human JJN-3 cells harboring wild type KRAS at 0.1 to 10000 nM incubated for 72 hrs by MTS assay; type: functional, cell-based; conditions: dose 0.1-10000 nM
[5] = AUC(0 to infinity) in Sprague-Dawley rat at 3 mg/kg, iv measured for 24 hrs by LC-MS/MS analysis; type: ADME, organism-based; parameters: dose 3 mg/kg, time 24 hrs, route iv; conditions: in vivo
[6] = Hepatotoxicity in male NSG mouse xenografted with human RPMI-8226 cells assessed as prominent nucleoli at 3 mg/kg, ip administered 3 times a week for 26 days and measured 48 hrs post last dose by H and E staining based assay; type: toxicity, organism-based; conditions: in vivo, 672 h, time 28 day
KMS-28PE = test: Antiproliferative activity against human KMS-28-PE cells harboring KRAS G12A mutant at 0.1 to 10000 nM incubated for 72 hrs by MTS assay; type: functional, cell-based; conditions: dose 0.1-10000 nM
HCT-116 [7] = test: Induction of apoptosis in human HCT-116 cells assessed as late apoptotic cells at 1 uM incubated for 72 hrs by APC-Annexin-V/7-AAD staining based flow cytometry (reference value: 0%); type: functional
RPMI-8226 [8] = test: Induction of ER stress in human RPMI-8226 cells at 1 uM; type: functional, cell-based
[9] = Hepatotoxicity in female NSG mouse xenografted with human RPMI-8226 cells assessed as prominent nucleoli at 3 mg/kg, ip administered 3 times a week for 26 days and measured 48 hrs post last dose by H and E staining based assay; type: toxicity, organism-based; conditions: in vivo, 672 h, time 28 day
[10] = Hepatotoxicity in male NSG mouse xenografted with human RPMI-8226 cells assessed as serum AST level at 3 mg/kg, ip administered 3 times a week for 26 days and measured 48 hrs post last dose (reference value: 76 to 78 IU/L); type: toxicity, organism-based; conditions: in vivo, 672 h, time 28 day
[11] = Toxicity in NSG mouse xenografted with human MIA PaCa-2 cells assessed as signs of distress at 3 mg/kg, ip administered 3 times a week for 26 days and measured daily; type: organism-based; conditions: in vivo, time 26 day
[12] = Hepatotoxicity in male NSG mouse xenografted with human RPMI-8226 cells assessed as serum ALT level at 3 mg/kg, ip administered 3 times a week for 26 days and measured 48 hrs post last dose (reference value: 35 to 40 IU/L); type: toxicity, organism-based; conditions: in vivo, 672 h, time 28 day
MIA PaCa-2 [13] = test: cells; conditions: Homo sapiens, MIA PaCa-2, 72 h
[14] = AUC(0 to t) in Sprague-Dawley rat at 3 mg/kg, iv measured for 24 hrs by LC-MS/MS analysis; type: ADME, organism-based; parameters: dose 3 mg/kg, time 24 hrs, route iv; conditions: in vivo
[15] = Toxicity in NSG mouse xenografted with human MIA PaCa-2 cells assessed as inflammation at site of injection at 3 mg/kg, ip administered 3 times a week for 26 days and measured daily; type: organism-based; conditions: in vivo, time 26 day
[16] = Hepatotoxicity in female NSG mouse xenografted with human RPMI-8226 cells assessed as serum ALT level at 3 mg/kg, ip administered 3 times a week for 26 days and measured 48 hrs post last dose (reference value: 30 to 98 IU/L); type: toxicity, organism-based; conditions: in vivo, 672 h, time 28 day
HCT-116 [17] = test: Induction of apoptosis in human HCT-116 cells at 1 uM incubated for 72 hrs by APC-Annexin-V/7-AAD staining based flow cytometry relative to control; type: functional
[18] = MRT in Sprague-Dawley rat at 3 mg/kg, iv measured for 24 hrs by LC-MS/MS analysis; type: ADME, organism-based; conditions: in vivo
[19] = Hepatotoxicity in female NSG mouse xenografted with human RPMI-8226 cells assessed as inflammatory infiltrates at 3 mg/kg, ip administered 3 times a week for 26 days and measured 48 hrs post last dose by H and E staining based assay; type: toxicity, organism-based; conditions: in vivo, 672 h, time 28 day
[20] = Metabolic stability in human liver microsomes assessed as compound remaining incubated for 45 mins in presence of NADPH by LC-MS/MS analysis; type: ADME, Microsome; conditions: 0.75 h
[21] = Cytotoxicity against wild type mouse normal ductal organoid [N(10128)] at 1 uM incubated for 72 hrs by CellTiter-Glo luminescence based analysis; type: toxicity, tissue-based
[22] = Hepatotoxicity in male NSG mouse xenografted with human RPMI-8226 cells assessed as inflammatory infiltrates at 3 mg/kg, ip administered 3 times a week for 26 days and measured 48 hrs post last dose by H and E staining based assay; type: toxicity, organism-based; conditions: in vivo, 672 h, time 28 day
HCT-116 [23] = test: Induction of apoptosis in human HCT-116 cells assessed as early apoptotic cells at 1 uM incubated for 72 hrs by APC-Annexin-V/7-AAD staining based flow cytometry (reference value: 1.16%); type: functional
[24] = Cytotoxicity against human IMR-90 cells assessed as inhibition of cell growth at 360 nM incubated for 72 hrs by MTS assay relative to control; type: toxicity, cell-based
RPMI-8226 [25] = test: Antitumor activity against human RPMI-8226 cells xenografted in NSG mouse assessed as reduction in tumor volume at 3 mg/kg, ip administered 3 times a week for 26 days; type: functional, organism-based; conditions: time 26.0 day
HCT-116 [26] = test: Induction of apoptosis in human HCT-116 cells assessed as late apoptotic cells at 1 uM incubated for 72 hrs in presence of geranylgeraniol by APC-Annexin-V/7-AAD staining based flow cytometry (reference value: 0%); type: functional
HCT-116 [27] = test: Induction of apoptosis in human HCT-116 cells assessed as necrotic cells at 1 uM incubated for 72 hrs in presence of geranylgeraniol by APC-Annexin-V/7-AAD staining based flow cytometry (reference value: 2.99%); type: functional
[28] = Hepatotoxicity in male NSG mouse xenografted with human RPMI-8226 cells assessed as eosinophilic degeneration at 3 mg/kg, ip administered 3 times a week for 26 days and measured 48 hrs post last dose by H and E staining based assay; type: toxicity, organism-based; conditions: in vivo, 672 h, time 28 day
HCT-116 [29] = test: cells; conditions: Homo sapiens, HCT-116, 72 h
[30] = molecular target: T1, Ras-related protein Rap-1A (Homo sapiens) (UniProt P62834); test: Inhibition of RAP-1A prenylation in human HCT-116 cells incubated for 48 hrs by Western blot analysis; type: cell-based; conditions: dose 10-1000 nM
T1 sequence (whole entry): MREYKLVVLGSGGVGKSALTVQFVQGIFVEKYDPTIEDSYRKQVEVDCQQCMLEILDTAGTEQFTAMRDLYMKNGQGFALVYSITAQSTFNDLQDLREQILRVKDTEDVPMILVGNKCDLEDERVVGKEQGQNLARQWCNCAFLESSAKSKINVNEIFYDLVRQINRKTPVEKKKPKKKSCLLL

Cn1ncc2c(NC(P(=O)(O)O)P(=O)(O)O)nc(-c3cccc(C(=O)Nc4ccc(C(F)(F)F)cc4)c3)nc21
Activity [1]: Non-Toxic
IC50 (Cytochrome P450 3A4): > 40 µM
half-life [2]: 230 min
Activity [3]: 199 IU/L
Activity (MIA PaCa-2 [4]): ~50%
Activity (JJN-3): Active
AUC(0-inf) [5]: 156 µg·h/mL
Activity [6]: Non-Toxic
Activity (KMS-28PE): Active
Activity (HCT-116 [7]): 18%
Activity (RPMI-8226 [8]): Active
Activity [9]: Non-Toxic
Activity [10]: 96 IU/L
Activity [11]: Non-Toxic
Activity [12]: 42 IU/L
EC50 (MIA PaCa-2 [13]): 790 nM
AUC(0-t) at 24 h [14]: 254 µg·h/mL
Activity [15]: Non-Toxic
Activity [16]: 59 IU/L
Activity (HCT-116 [17]): ~50%
MRT [18]: 4.68 h
Activity [19]: Non-Toxic
Stability [20]: 107%
Activity [21]: Non-Toxic
Activity [22]: Non-Toxic
Activity (HCT-116 [23]): 20.7%
inhibition at 72 h, 0.36 µM [24]: 0%
Activity (RPMI-8226 [25]): Active
Activity (HCT-116 [26]): 2.17%
Activity (HCT-116 [27]): 2.55%
Activity [28]: Non-Toxic
EC50 (HCT-116 [29]): 580 nM
inhibition [30]: Dose-Dependent Effect
